In patent publication US20100317620A1, “N-PHENYLIMIDAZO[1,2-a]PYRIDINE-2-CARBOXAMIDE COMPOUNDS, PREPARATION AND THERAPEUTIC USE THEREOF” (sanofi-aventis, priority 2008, published 2010):
Counter-ions that a name gives are not always drawn.

Biological target: T1, murine Nurr1 receptor (Mus musculus, UniProt Q06219)
T1 construct: a cell line (N2A) endogenously expressing the murine Nurr1 receptor; host or cells: Neuro-2A (N2A) mouse neuroblastoma cells stably transfected with 8NBRE-luciferase
Assay: In vitro activity on N2A cells (8NBRE-luciferase reporter)
Format: cell-based
Settings: N2A cell line endogenously expressing murine Nurr1, stably transfected with NBRE-luciferase; 24 hours incubation
Protocol: Evaluation of the In Vitro Activity on N2A Cells
The activity of the compounds according to the invention was evaluated on a cell line (N2A) endogenously expressing the murine Nurr1 receptor and stably transfected with the NOT binding response element (NBRE) coupled to the luciferase reporter gene. The EC50 values are between 0.01 and 1000 nM. The tests were performed according to the procedure described hereinbelow.
The cell line Neuro-2A is obtained from a standard commercial source (ATCC). The clone Neuro-2A was obtained from a spontaneous tumour originating from a strain of albino mice A by R. J Klebe et al. This line Neuro-2A is then stably transfected with 8NBRE-luciferase. The N2A-8NBRE cells are cultured to the point of confluence in 75 cm^2 culture flasks containing DMEM supplemented with 10% foetal calf serum, 4.5 g/L of glucose and 0.4 mg/ml of geneticin. After culturing for one week, the cells are recovered with 0.25% trypsin for 30 seconds and then resuspended in DMEM without phenol red, containing 4.5 g/L of glucose and 10% Hyclone defatted serum, and placed in white, transparent-based 96-well plates. The cells are deposited at a rate of 60 000 per well in 75 μL for 24 hours before adding the products. The products are applied in 25 μL and incubated for a further 24 hours. On the day of measurement, an equivalent volume (100 μL) of Steadylite is added to each well, and the wells are then left for 30 minutes to obtain complete lysis of the cells and maximum production of the signal. The plates are then measured in a microplate luminescence counter, after having been sealed with an adhesive film. The products are prepared in the form of a 10^−2 M stock solution, and then diluted in 100% of DMSO. Each concentration of product is prediluted in culture medium before incubation with the cells thus containing 0.625% final of DMSO.

T1 sequence (Q06219 whole entry): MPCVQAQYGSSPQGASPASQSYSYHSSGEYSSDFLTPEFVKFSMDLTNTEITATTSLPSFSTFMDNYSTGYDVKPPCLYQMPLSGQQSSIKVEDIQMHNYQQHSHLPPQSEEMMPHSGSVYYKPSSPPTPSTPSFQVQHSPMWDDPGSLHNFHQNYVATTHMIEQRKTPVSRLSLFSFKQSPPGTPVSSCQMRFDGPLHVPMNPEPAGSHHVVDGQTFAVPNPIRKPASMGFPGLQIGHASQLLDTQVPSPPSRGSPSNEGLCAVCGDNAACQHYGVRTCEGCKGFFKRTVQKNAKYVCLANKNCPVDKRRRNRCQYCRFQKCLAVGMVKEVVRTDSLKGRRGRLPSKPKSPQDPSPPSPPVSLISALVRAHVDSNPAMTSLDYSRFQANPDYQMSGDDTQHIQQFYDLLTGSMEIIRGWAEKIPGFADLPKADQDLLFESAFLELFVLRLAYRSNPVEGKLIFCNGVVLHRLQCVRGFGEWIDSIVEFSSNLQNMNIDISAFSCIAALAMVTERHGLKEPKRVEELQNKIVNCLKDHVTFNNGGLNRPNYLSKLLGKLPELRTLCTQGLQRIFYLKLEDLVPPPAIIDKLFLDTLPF

Row | EC50 [nM] | Molecule
1 | 2 | CSc1ccc2nc(C(=O)Nc3ccccc3)cn2c1 [Example 14, 6-(Methylthio)-N-phenylimidazo[1,2-a]pyridine-2-carboxamide and its hydrobromide (1:1)]
2 | 16 | CS(=O)(=O)c1ccc2nc(C(=O)Nc3ccccc3)cn2c1 [Example 16, 6-(Methylsulfonyl)-N-phenylimidazo[1,2-a]pyridine-2-carboxamide and its hydrobromide (1:1)]

Row | Molecule | EC50 [nM]
3 | 6-(Isopropylamino)-N-phenylimidazo[1,2-a]pyridine-2-carboxamide and its hydrochloride (1:1) [Example 2] | 1.6
